Experimental data from the supplement of paper PMC10307832.

Assays:
Test in all cases: relative viability (nuclei count vs DMSO), 5 days (fraction); higher = more cells survive
[1] = compound: C1=CC2=NC=CN=C2C=C1/C=C/3\C(=O)NC(=O)S3 + N=C(N)NC(=N)NCCc1ccccc1 [Phenformin] (partner 250 µM)
Summary of the method: (§1)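 The day after seeding in 1536-well plates, lung cancer cell lines were treated by pin tool with a single drug, or with a fixed anchor-drug dose together with five library-drug doses (not always all listed) in √10 steps. After 5 days, a combined fix-and-stain solution (final 0.05% Triton X-100, 1% formaldehyde, 1 ug/ml Hoechst) was added. Nuclei counted on 4× images gave relative viability as treated counts over vehicle counts, reported as the median of duplicate plates.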

[2] = compound: CCN1CCN(c2ccc(Nc3cc(N(C)C(=O)Nc4c(Cl)c(OC)cc(OC)c4Cl)ncn3)cc2)CC1 [BGJ398] + O=C(CCCCCCC(=O)Nc1ccccc1)NO [Vorinostat] (partner 1 µM)
Summary of the method: as §1

[3] = compound: CCN1CCN(c2ccc(Nc3cc(N(C)C(=O)Nc4c(Cl)c(OC)cc(OC)c4Cl)ncn3)cc2)CC1 [BGJ398] + CC(=O)Nc1cccc(-n2c(=O)n(C3CC3)c(=O)c3c(Nc4ccc(I)cc4F)n(C)c(=O)c(C)c32)c1 [Trametinib] (partner 0.02 µM)
Summary of the method: as §1

[4] = compound: CCN1CCN(c2ccc(Nc3cc(N(C)C(=O)Nc4c(Cl)c(OC)cc(OC)c4Cl)ncn3)cc2)CC1 [BGJ398] + CS(=O)(=O)N1CCN(Cc2cc3nc(-c4cccc5[nH]ncc45)nc(N4CCOCC4)c3s2)CC1 [Pictilisib] (partner 1 µM)
Summary of the method: as §1

Cell Line: NCI-H2405
- relative viability ([1]; first compound 0.02 µM): 0.44
- relative viability ([1]; first compound 0.06325 µM): 0.406
- relative viability ([1]; first compound 0.2 µM): 0.397
- relative viability ([1]; first compound 0.6325 µM): 0.383
- relative viability ([1]; first compound 2 µM): 0.111
- relative viability ([2]; first compound 0.01 µM): 1.13
- relative viability ([2]; first compound 0.03162 µM): 1.04
- relative viability ([2]; first compound 0.1 µM): 0.919
- relative viability ([2]; first compound 0.3162 µM): 0.938
- relative viability ([2]; first compound 1 µM): 1.01
- relative viability ([3]; first compound 0.01 µM): 0.495
- relative viability ([3]; first compound 0.03162 µM): 0.654
- relative viability ([3]; first compound 0.1 µM): 0.622
- relative viability ([3]; first compound 0.3162 µM): 0.463
- relative viability ([3]; first compound 1 µM): 0.59
- relative viability ([4]; first compound 0.01 µM): 0.406
- relative viability ([4]; first compound 0.03162 µM): 0.587
- relative viability ([4]; first compound 0.1 µM): 0.42
- relative viability ([4]; first compound 0.3162 µM): 0.482
- relative viability ([4]; first compound 1 µM): 0.421

Cell Line: NCI-H3122
- relative viability ([1]; first compound 0.02 µM): 0.401
- relative viability ([1]; first compound 0.06325 µM): 0.356
- relative viability ([1]; first compound 0.2 µM): 0.379
- relative viability ([1]; first compound 0.6325 µM): 0.392
- relative viability ([1]; first compound 2 µM): 0.366
- relative viability ([2]; first compound 0.01 µM): 0.99
- relative viability ([2]; first compound 0.03162 µM): 0.991
- relative viability ([2]; first compound 0.1 µM): 1.01
- relative viability ([2]; first compound 0.3162 µM): 0.996
- relative viability ([2]; first compound 1 µM): 1.2
- relative viability ([3]; first compound 0.01 µM): 0.204
- relative viability ([3]; first compound 0.03162 µM): 0.223
- relative viability ([3]; first compound 0.1 µM): 0.245
- relative viability ([3]; first compound 0.3162 µM): 0.19
- relative viability ([3]; first compound 1 µM): 0.264
- relative viability ([4]; first compound 0.01 µM): 0.609
- relative viability ([4]; first compound 0.03162 µM): 0.652
- relative viability ([4]; first compound 0.1 µM): 0.625
- relative viability ([4]; first compound 0.3162 µM): 0.678
- relative viability ([4]; first compound 1 µM): 0.582

Cell Line: PC-3 [JPC-3]
- relative viability ([1]; first compound 0.02 µM): 0.478
- relative viability ([1]; first compound 0.06325 µM): 0.542
- relative viability ([1]; first compound 0.2 µM): 0.467
- relative viability ([1]; first compound 0.6325 µM): 0.487
- relative viability ([1]; first compound 2 µM): 0.487
- relative viability ([2]; first compound 0.01 µM): 1.04
- relative viability ([2]; first compound 0.1 µM): 0.52
- relative viability ([2]; first compound 1 µM): 0.705
- relative viability ([3]; first compound 0.01 µM): 0.75
- relative viability ([3]; first compound 0.1 µM): 0.787
- relative viability ([3]; first compound 1 µM): 0.782
- relative viability ([4]; first compound 0.01 µM): 0.716
- relative viability ([4]; first compound 0.1 µM): 0.708
- relative viability ([4]; first compound 0.3162 µM): 0.492
- relative viability ([4]; first compound 1 µM): 0.689

Cell Line: PC-14
- relative viability ([1]; first compound 0.02 µM): 0.718
- relative viability ([1]; first compound 0.06325 µM): 0.719
- relative viability ([1]; first compound 0.2 µM): 0.641
- relative viability ([1]; first compound 0.6325 µM): 0.649
- relative viability ([1]; first compound 2 µM): 0.452
- relative viability ([2]; first compound 0.01 µM): 0.722
- relative viability ([2]; first compound 0.03162 µM): 0.121
- relative viability ([2]; first compound 0.1 µM): 0.818
- relative viability ([2]; first compound 1 µM): 0.78
- relative viability ([3]; first compound 0.01 µM): 0.762
- relative viability ([3]; first compound 0.03162 µM): 0.821
- relative viability ([3]; first compound 0.1 µM): 0.735
- relative viability ([3]; first compound 1 µM): 0.903
- relative viability ([4]; first compound 0.01 µM): 0.696
- relative viability ([4]; first compound 0.03162 µM): 0.346
- relative viability ([4]; first compound 0.1 µM): 0.92
- relative viability ([4]; first compound 0.3162 µM): 0.669
- relative viability ([4]; first compound 1 µM): 0.866

Cell Line: RERF-LC-KJ
- relative viability ([1]; first compound 0.02 µM): 0.399
- relative viability ([1]; first compound 0.06325 µM): 0.467
- relative viability ([1]; first compound 0.2 µM): 0.406
- relative viability ([1]; first compound 0.6325 µM): 0.392
- relative viability ([1]; first compound 2 µM): 0.418
- relative viability ([2]; first compound 0.01 µM): 0.668
- relative viability ([2]; first compound 0.03162 µM): 0.643
- relative viability ([2]; first compound 0.1 µM): 0.765
- relative viability ([2]; first compound 0.3162 µM): 0.727
- relative viability ([2]; first compound 1 µM): 0.539
- relative viability ([3]; first compound 0.01 µM): 0.854
- relative viability ([3]; first compound 0.03162 µM): 0.864
- relative viability ([3]; first compound 0.1 µM): 0.962
- relative viability ([3]; first compound 0.3162 µM): 0.87
- relative viability ([3]; first compound 1 µM): 0.953
- relative viability ([4]; first compound 0.01 µM): 0.598
- relative viability ([4]; first compound 0.03162 µM): 0.663
- relative viability ([4]; first compound 0.1 µM): 0.515
- relative viability ([4]; first compound 0.3162 µM): 0.583
- relative viability ([4]; first compound 1 µM): 0.615

Cell Line: SK-LU-1
- relative viability ([1]; first compound 0.02 µM): 0.681
- relative viability ([1]; first compound 0.06325 µM): 0.628
- relative viability ([1]; first compound 0.2 µM): 0.552
- relative viability ([1]; first compound 0.6325 µM): 0.554
- relative viability ([1]; first compound 2 µM): 0.395
- relative viability ([2]; first compound 0.01 µM): 0.764
- relative viability ([2]; first compound 0.03162 µM): 0.773
- relative viability ([2]; first compound 0.1 µM): 0.839
- relative viability ([2]; first compound 0.3162 µM): 0.767
- relative viability ([2]; first compound 1 µM): 0.774
- relative viability ([3]; first compound 0.01 µM): 0.446
- relative viability ([3]; first compound 0.03162 µM): 0.669
- relative viability ([3]; first compound 0.1 µM): 0.454
- relative viability ([3]; first compound 0.3162 µM): 0.52
- relative viability ([3]; first compound 1 µM): 0.229
- relative viability ([4]; first compound 0.01 µM): 0.547
- relative viability ([4]; first compound 0.03162 µM): 0.61
- relative viability ([4]; first compound 0.1 µM): 0.497
- relative viability ([4]; first compound 0.3162 µM): 0.531
- relative viability ([4]; first compound 1 µM): 0.424

Cell Line: SK-MES-1
- relative viability ([1]; first compound 0.02 µM): 0.623
- relative viability ([1]; first compound 0.06325 µM): 0.697
- relative viability ([1]; first compound 0.2 µM): 0.713
- relative viability ([1]; first compound 0.6325 µM): 0.626
- relative viability ([1]; first compound 2 µM): 0.645
- relative viability ([2]; first compound 0.01 µM): 1.05
- relative viability ([2]; first compound 0.03162 µM): 1.11
- relative viability ([2]; first compound 0.1 µM): 1.03
- relative viability ([2]; first compound 0.3162 µM): 1.09
- relative viability ([2]; first compound 1 µM): 0.913
- relative viability ([3]; first compound 0.01 µM): 0.525
- relative viability ([3]; first compound 0.03162 µM): 0.591
- relative viability ([3]; first compound 0.1 µM): 0.534
- relative viability ([3]; first compound 0.3162 µM): 0.574
- relative viability ([3]; first compound 1 µM): 0.63
- relative viability ([4]; first compound 0.01 µM): 0.401
- relative viability ([4]; first compound 0.03162 µM): 0.415
- relative viability ([4]; first compound 0.1 µM): 0.431
- relative viability ([4]; first compound 0.3162 µM): 0.383
- relative viability ([4]; first compound 1 µM): 0.335

Cell Line: SW 1573
- relative viability ([1]; first compound 0.02 µM): 0.377
- relative viability ([1]; first compound 0.06325 µM): 0.443
- relative viability ([1]; first compound 0.2 µM): 0.429
- relative viability ([1]; first compound 0.6325 µM): 0.323
- relative viability ([1]; first compound 2 µM): 0.287
- relative viability ([2]; first compound 0.01 µM): 0.742
- relative viability ([2]; first compound 0.03162 µM): 0.796
- relative viability ([2]; first compound 0.1 µM): 0.713
- relative viability ([2]; first compound 0.3162 µM): 0.854
- relative viability ([2]; first compound 1 µM): 0.786
- relative viability ([3]; first compound 0.01 µM): 0.477
- relative viability ([3]; first compound 0.03162 µM): 0.587
- relative viability ([3]; first compound 0.1 µM): 0.455
- relative viability ([3]; first compound 0.3162 µM): 0.448
- relative viability ([3]; first compound 1 µM): 0.47
- relative viability ([4]; first compound 0.01 µM): 0.485
- relative viability ([4]; first compound 0.03162 µM): 0.486
- relative viability ([4]; first compound 0.1 µM): 0.495
- relative viability ([4]; first compound 0.3162 µM): 0.438
- relative viability ([4]; first compound 1 µM): 0.611

Cell Line: UMC-11
- relative viability ([1]; first compound 0.02 µM): 0.329
- relative viability ([1]; first compound 0.06325 µM): 0.335
- relative viability ([1]; first compound 0.2 µM): 0.373
- relative viability ([1]; first compound 0.6325 µM): 0.338
- relative viability ([1]; first compound 2 µM): 0.331
- relative viability ([2]; first compound 0.01 µM): 0.363
- relative viability ([2]; first compound 0.03162 µM): 0.407
- relative viability ([2]; first compound 0.1 µM): 0.376
- relative viability ([2]; first compound 0.3162 µM): 0.376
- relative viability ([2]; first compound 1 µM): 0.382
- relative viability ([3]; first compound 0.01 µM): 0.671
- relative viability ([3]; first compound 0.03162 µM): 0.749
- relative viability ([3]; first compound 0.1 µM): 0.808
- relative viability ([3]; first compound 0.3162 µM): 0.622
- relative viability ([3]; first compound 1 µM): 0.55
- relative viability ([4]; first compound 0.01 µM): 0.839
- relative viability ([4]; first compound 0.03162 µM): 0.686
- relative viability ([4]; first compound 0.1 µM): 0.897
- relative viability ([4]; first compound 0.3162 µM): 0.73
- relative viability ([4]; first compound 1 µM): 0.707
